# In patent US11896591B2, “Compositions and methods for preparing and using mitochondrial uncouplers” (UNIVERSITY OF VIRGINIA PATENT FOUNDATION, priority 2017, dated 2024):
# Test system: whole cells
# Test: Oxygen consumption rate (OCR) in whole cells, Seahorse XF-24 Flux Analyzer
# Assay type: cell-based
# Conditions: binned EC50 values; increase in oxygen consumption rate in whole cells
# Protocol: Biological activities of the compounds synthesized is determined by determining increase in oxygen consumption rate (OCR).
# OCR is measured using a Seahorse XF-24 Flux Analyzer (Seahorse Biosciences, North Billerica, MA). NMuLi, C2C12, and L6 cells are seeded in a Seahorse 24-well tissue culture plate at a density of 3.5×10^4 cells/well, isolated cardiomyocytes at a density of 4×10^4 cells/well, and human primary fibroblasts at a density of 1.1×10^4 cells/well. The cells are then allowed to adhere for 24 h. […] Compounds are injected during the assay and OCR is measured using 2 min measurement periods.
# 2-3 wells are used per condition and averaged over three plates (n=6-9). Statistical significance is determined by two-way ANOVA with Bonferroni's posttest.
row,EC50 [µM],Compound
1,< 5,"Fc1ccccc1Nc1nc2nonc2nc1Nc1ccccc1 [Compound 4a, N^5-(2-fluorophenyl)-N^6-phenyl-[1,2,5]oxadiazolo[3,4-b]pyrazine-5,6-diamine]"
2,< 5,"Fc1ccccc1Nc1nc2nonc2nc1Nc1cc(C(F)(F)F)cc(C(F)(F)F)c1 [Compound 4aa, N^5-(3,5-bis(trifluoromethyl)phenyl)-N^6-(2-fluorophenyl)-[1,2,5]oxadiazolo[3,4-b]pyrazine-5,6-diamine]"
3,> 20,"Fc1ccccc1Nc1nc2nonc2nc1Nc1ccccn1 [Compound 4b, N^5-(2-fluorophenyl)-N^6-(pyridin-2-yl)-[1,2,5]oxadiazolo[3,4-b]pyrazine-5,6-diamine]"
4,< 5,"Fc1ccccc1Nc1nc2nonc2nc1Nc1cccc(C(F)(F)F)c1F [Compound 4bb, N^5-(2-fluoro-3-(trifluoromethyl)phenyl)-N^6-(2-fluorophenyl)-[1,2,5]oxadiazolo[3,4-b]pyrazine-5,6-diamine]"
5,< 5,"Fc1ccc(Nc2nc3nonc3nc2Nc2ccccc2F)cc1 [Compound 4d, N^5-(2-fluorophenyl)-N^6-(4-fluorophenyl)-[1,2,5]oxadiazolo[3,4-b]pyrazine-5,6-diamine]"
6,< 5,"Fc1ccccc1Nc1nc2nonc2nc1Nc1cccc(F)c1F [Compound 4e, N^5-(2,3-difluorophenyl)-N^6-(2-fluorophenyl)-[1,2,5]oxadiazolo[3,4-b]pyrazine-5,6-diamine]"
7,< 5,"Fc1ccc(Nc2nc3nonc3nc2Nc2ccccc2F)c(F)c1 [Compound 4f, N^5-(2,4-difluorophenyl)-N^6-(2-fluorophenyl)-[1,2,5]oxadiazolo[3,4-b]pyrazine-5,6-diamine]"
8,< 5,"Cc1cccc(Nc2nc3nonc3nc2Nc2ccccc2F)c1 [Compound 4h, N^5-(2-fluorophenyl)-N^6-(m-tolyl)-[1,2,5]oxadiazolo[3,4-b]pyrazine-5,6-diamine]"
9,5 to 20,"Cc1ccc(Nc2nc3nonc3nc2Nc2ccccc2F)cc1 [Compound 4i, N^5-(2-fluorophenyl)-N^6-(p-tolyl)-[1,2,5]oxadiazolo[3,4-b]pyrazine-5,6-diamine]"
10,< 5,"COc1cccc(Nc2nc3nonc3nc2Nc2ccccc2F)c1 [Compound 4k, N^5-(2-fluorophenyl)-N^6-(3-methoxyphenyl)-[1,2,5]oxadiazolo[3,4-b]pyrazine-5,6-diamine]"
11,< 5,"COc1ccc(Nc2nc3nonc3nc2Nc2ccccc2F)cc1 [Compound 4l, N^5-(2-fluorophenyl)-N^6-(4-methoxyphenyl)-[1,2,5]oxadiazolo[3,4-b]pyrazine-5,6-diamine]"
12,< 5,"CCOc1cccc(Nc2nc3nonc3nc2Nc2ccccc2F)c1 [Compound 4n, N^5-(3-ethoxyphenyl)-N^6-(2-fluorophenyl)-[1,2,5]oxadiazolo[3,4-b]pyrazine-5,6-diamine]"
13,< 5,"CCOc1ccc(Nc2nc3nonc3nc2Nc2ccccc2F)cc1 [Compound 4o, N^5-(4-ethoxyphenyl)-N^6-(2-fluorophenyl)-[1,2,5]oxadiazolo[3,4-b]pyrazine-5,6-diamine]"
14,5 to 20,"Fc1ccccc1Nc1nc2nonc2nc1Nc1cccc(OC(F)(F)F)c1 [Compound 4r, N^5-(2-fluorophenyl)-N^6-(3-(trifluoromethoxy)phenyl)-[1,2,5]oxadiazolo[3,4-b]pyrazine-5,6-diamine]"
15,< 5,"Fc1ccccc1Nc1nc2nonc2nc1Nc1ccc(OC(F)(F)F)cc1 [Compound 4s, N^5-(2-fluorophenyl)-N^6-(4-(trifluoromethoxy)phenyl)-[1,2,5]oxadiazolo[3,4-b]pyrazine-5,6-diamine]"
16,< 5,"O=C(Nc1ccc(Nc2nc3nonc3nc2Nc2ccccc2F)cc1)C(F)(F)F [Compound 4t, 2,2,2-Trifluoro-N-(4-((6-((2-fluorophenyl)amino)-[1,2,5]oxadiazolo[3,4-b]pyrazin-5-yl)amino)phenyl)acetamide]"
17,< 5,"Fc1ccccc1Nc1nc2nonc2nc1Nc1ccccc1C(F)(F)F [Compound 4u, N^5-(2-fluorophenyl)-N^6-(2-(trifluoromethyl)phenyl)-[1,2,5]oxadiazolo[3,4-b]pyrazine-5,6-diamine]"
18,< 5,"Fc1ccccc1Nc1nc2nonc2nc1Nc1cccc(C(F)(F)F)c1 [Compound 4v, N^5-(2-fluorophenyl)-N^6-(3-(trifluoromethyl)phenyl)-[1,2,5]oxadiazolo[3,4-b]pyrazine-5,6-diamine]"
19,< 5,"Fc1ccccc1Nc1nc2nonc2nc1Nc1ccc(C(F)(F)F)cc1 [Compound 4w, N^5-(2-fluorophenyl)-N^6-(4-(trifluoromethyl)phenyl)-[1,2,5]oxadiazolo[3,4-b]pyrazine-5,6-diamine]"

# The next lines start with the compound.
row,Compound,EC50 [µM]
1,"Cc1ccccc1Nc1nc2nonc2nc1Nc1ccccc1C [Compound 3a, N^5,N^6-di-o-tolyl-[1,2,5]oxadiazolo[3,4-b]pyrazine-5,6-diamine]",> 20
2,"Fc1c(Nc2nc3nonc3nc2Nc2cccc(C(F)(F)F)c2F)cccc1C(F)(F)F [Compound 3aa, N^5,N^6-bis(2-fluoro-3-(trifluoromethyl)phenyl)-[1,2,5]oxadiazolo[3,4-b]pyrazine-5,6-diamine]",< 5
3,"Cc1cccc(Nc2nc3nonc3nc2Nc2cccc(C)c2)c1 [Compound 3b, N^5,N^6-di-m-tolyl-[1,2,5]oxadiazolo[3,4-b]pyrazine-5,6-diamine]",< 5
4,"Fc1cc(Nc2nc3nonc3nc2Nc2ccc(OC(F)(F)F)c(F)c2)ccc1OC(F)(F)F [Compound 3bb, N^5,N^6-bis(3-fluoro-4-(trifluoromethoxy)phenyl)-[1,2,5]oxadiazolo[3,4-b]pyrazine-5,6-diamine]",< 5
5,"Cc1ccc(Nc2nc3nonc3nc2Nc2ccc(C)cc2)cc1 [Compound 3c, N^5,N^6-di-p-tolyl-[1,2,5]oxadiazolo[3,4-b]pyrazine-5,6-diamine]",5 to 20
6,"Fc1cc(F)cc(Nc2nc3nonc3nc2Nc2cc(F)cc(F)c2)c1 [Compound 3cc, N^5,N^6-bis(3,5-difluorophenyl)-[1,2,5]oxadiazolo[3,4-b]pyrazine-5,6-diamine]",< 5
7,"COc1cccc(Nc2nc3nonc3nc2Nc2cccc(OC)c2)c1 [Compound 3e, N^5,N^6-bis(3-methoxyphenyl)-[1,2,5]oxadiazolo[3,4-b]pyrazine-5,6-diamine]",> 20
8,"c1ccc(Nc2nc3nonc3nc2Nc2ccccc2)cc1 [Compound 3ee, N^5,N^6-diphenyl-[1,2,5]oxadiazolo[3,4-b]pyrazine-5,6-diamine]",< 5
9,"CCOc1cccc(Nc2nc3nonc3nc2Nc2cccc(OCC)c2)c1 [Compound 3h, N^5,N^6-bis(3-ethoxyphenyl)-[1,2,5]oxadiazolo[3,4-b]pyrazine-5,6-diamine]",5 to 20
10,"FC(F)(F)Oc1ccccc1Nc1nc2nonc2nc1Nc1ccccc1OC(F)(F)F [Compound 3k, N^5,N^6-bis(2-(trifluoromethoxy)phenyl)-[1,2,5]oxadiazolo[3,4-b]pyrazine-5,6-diamine]",< 5
11,"FC(F)(F)Oc1cccc(Nc2nc3nonc3nc2Nc2cccc(OC(F)(F)F)c2)c1 [Compound 3l, N^5,N^6-bis(3-(trifluoromethoxy)phenyl)-[1,2,5]oxadiazolo[3,4-b]pyrazine-5,6-diamine]",< 5
12,"Fc1cccc(Nc2nc3nonc3nc2Nc2cccc(F)c2)c1 [Compound 3n, N^5,N^6-bis(3-fluorophenyl)-[1,2,5]oxadiazolo[3,4-b]pyrazine-5,6-diamine]",< 5
13,"FC(F)(F)c1ccccc1Nc1nc2nonc2nc1Nc1ccccc1C(F)(F)F [Compound 3q, N^5,N^6-bis(2-(trifluoromethyl)phenyl)-[1,2,5]oxadiazolo[3,4-b]pyrazine-5,6-diamine]",< 5
14,"FC(F)(F)c1cccc(Nc2nc3nonc3nc2Nc2cccc(C(F)(F)F)c2)c1 [Compound 3r, N^5,N^6-bis(3-(trifluoromethyl)phenyl)-[1,2,5]oxadiazolo[3,4-b]pyrazine-5,6-diamine]",< 5
15,"FC(F)(F)c1ccc(Nc2nc3nonc3nc2Nc2ccc(C(F)(F)F)cc2)cc1 [Compound 3s, N^5,N^6-bis(4-(trifluoromethyl)phenyl)-[1,2,5]oxadiazolo[3,4-b]pyrazine-5,6-diamine]",< 5
16,"COC(=O)c1ccc(Nc2nc3nonc3nc2Nc2ccc(C(=O)OC)cc2)cc1 [Compound 3t, Dimethyl 4,4′-([1,2,5]oxadiazolo[3,4-b]pyrazine-5,6-diylbis(azanediyl))dibenzoate]",< 5
17,"Fc1cc(C(F)(F)F)ccc1Nc1nc2nonc2nc1Nc1ccc(C(F)(F)F)cc1F [Compound 3w, N^5,N^6-bis(2-fluoro-4-(trifluoromethyl)phenyl)-[1,2,5]oxadiazolo[3,4-b]pyrazine-5,6-diamine]",< 5
18,"Fc1cc(Nc2nc3nonc3nc2Nc2ccc(C(F)(F)F)c(F)c2)ccc1C(F)(F)F [Compound 3x, N^5,N^6-bis(3-fluoro-4-(trifluoromethyl)phenyl)-[1,2,5]oxadiazolo[3,4-b]pyrazine-5,6-diamine]",< 5
19,"Fc1ccc(C(F)(F)F)cc1Nc1nc2nonc2nc1Nc1cc(C(F)(F)F)ccc1F [Compound 3y, N^5,N^6-bis(2-fluoro-5-(trifluoromethyl)phenyl)-[1,2,5]oxadiazolo[3,4-b]pyrazine-5,6-diamine]",< 5
20,"FC(F)(F)c1cc(Nc2nc3nonc3nc2Nc2cc(C(F)(F)F)cc(C(F)(F)F)c2)cc(C(F)(F)F)c1 [Compound 3z, N^5,N^6-bis(3,5-bis(trifluoromethyl)phenyl)-[1,2,5]oxadiazolo[3,4-b]pyrazine-5,6-diamine]",> 20
21,"Fc1ccccc1Nc1nc2nonc2nc1Nc1ccccc1OC(F)(F)F [Compound 4q, N^5-(2-fluorophenyl)-N^6-(2-(trifluoromethoxy)phenyl)-[1,2,5]oxadiazolo[3,4-b]pyrazine-5,6-diamine]",< 5
